The target in assay [1] is Cyclin-dependent kinase 5/CDK5 activator 1 (Homo sapiens, UniProt Q00535). The assay is classed as protein-complex assay.
Description: Inhibitory activity against cyclin-dependent kinase 5/p25
Assay [2] has as its target Cyclin-dependent kinase 1/cyclin B (Homo sapiens, UniProt O95067+P06493+P14635+Q8WWL7). The assay is classed as cell-based, Marthasterias glacialis, Oocyte.
Description: Inhibitory activity against cyclin dependent kinase 1-cyclinB extracted from M phase starfish (Marthasterias glacialis) oocytes

Molecules are shown by their SMILES.

Chain of Cyclin-dependent kinase 5/CDK5 activator 1 (Q00535 whole entry): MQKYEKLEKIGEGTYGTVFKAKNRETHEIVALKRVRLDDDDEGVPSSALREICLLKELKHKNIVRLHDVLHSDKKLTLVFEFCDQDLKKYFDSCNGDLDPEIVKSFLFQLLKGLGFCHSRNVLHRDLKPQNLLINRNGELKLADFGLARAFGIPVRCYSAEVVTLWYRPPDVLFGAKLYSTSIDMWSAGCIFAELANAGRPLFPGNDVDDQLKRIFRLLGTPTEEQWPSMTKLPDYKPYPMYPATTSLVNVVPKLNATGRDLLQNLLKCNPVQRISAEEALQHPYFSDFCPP
Chain of Cyclin-dependent kinase 5/CDK5 activator 1 (Q15078 whole entry, further chain): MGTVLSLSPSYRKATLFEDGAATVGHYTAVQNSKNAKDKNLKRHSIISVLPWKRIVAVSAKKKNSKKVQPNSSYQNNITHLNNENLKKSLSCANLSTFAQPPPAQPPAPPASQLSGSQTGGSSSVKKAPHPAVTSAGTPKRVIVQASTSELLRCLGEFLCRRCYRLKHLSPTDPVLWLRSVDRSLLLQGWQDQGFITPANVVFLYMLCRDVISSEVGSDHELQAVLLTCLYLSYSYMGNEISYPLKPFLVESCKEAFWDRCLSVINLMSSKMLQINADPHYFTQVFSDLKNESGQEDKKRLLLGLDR
Chain of Cyclin-dependent kinase 1/cyclin B (P06493 whole entry): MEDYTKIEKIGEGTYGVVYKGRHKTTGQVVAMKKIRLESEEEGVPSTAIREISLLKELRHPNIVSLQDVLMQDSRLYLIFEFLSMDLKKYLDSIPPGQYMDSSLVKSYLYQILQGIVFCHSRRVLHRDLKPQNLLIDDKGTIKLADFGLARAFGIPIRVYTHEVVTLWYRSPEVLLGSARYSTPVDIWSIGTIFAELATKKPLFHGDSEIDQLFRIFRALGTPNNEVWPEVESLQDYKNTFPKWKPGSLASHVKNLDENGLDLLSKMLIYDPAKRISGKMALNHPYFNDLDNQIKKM
Chain of Cyclin-dependent kinase 1/cyclin B (P14635 whole entry): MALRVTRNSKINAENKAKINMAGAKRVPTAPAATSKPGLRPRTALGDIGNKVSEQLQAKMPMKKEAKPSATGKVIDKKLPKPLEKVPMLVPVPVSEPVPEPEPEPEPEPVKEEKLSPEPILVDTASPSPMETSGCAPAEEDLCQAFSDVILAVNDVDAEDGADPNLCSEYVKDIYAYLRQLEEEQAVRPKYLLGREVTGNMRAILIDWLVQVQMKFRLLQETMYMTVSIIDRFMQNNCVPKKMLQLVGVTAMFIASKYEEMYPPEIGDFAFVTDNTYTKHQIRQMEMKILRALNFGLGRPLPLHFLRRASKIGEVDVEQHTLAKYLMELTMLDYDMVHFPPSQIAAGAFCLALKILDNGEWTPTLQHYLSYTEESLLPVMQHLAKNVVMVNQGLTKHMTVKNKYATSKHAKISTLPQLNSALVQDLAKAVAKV
Chain of Cyclin-dependent kinase 1/cyclin B (Q8WWL7 whole entry): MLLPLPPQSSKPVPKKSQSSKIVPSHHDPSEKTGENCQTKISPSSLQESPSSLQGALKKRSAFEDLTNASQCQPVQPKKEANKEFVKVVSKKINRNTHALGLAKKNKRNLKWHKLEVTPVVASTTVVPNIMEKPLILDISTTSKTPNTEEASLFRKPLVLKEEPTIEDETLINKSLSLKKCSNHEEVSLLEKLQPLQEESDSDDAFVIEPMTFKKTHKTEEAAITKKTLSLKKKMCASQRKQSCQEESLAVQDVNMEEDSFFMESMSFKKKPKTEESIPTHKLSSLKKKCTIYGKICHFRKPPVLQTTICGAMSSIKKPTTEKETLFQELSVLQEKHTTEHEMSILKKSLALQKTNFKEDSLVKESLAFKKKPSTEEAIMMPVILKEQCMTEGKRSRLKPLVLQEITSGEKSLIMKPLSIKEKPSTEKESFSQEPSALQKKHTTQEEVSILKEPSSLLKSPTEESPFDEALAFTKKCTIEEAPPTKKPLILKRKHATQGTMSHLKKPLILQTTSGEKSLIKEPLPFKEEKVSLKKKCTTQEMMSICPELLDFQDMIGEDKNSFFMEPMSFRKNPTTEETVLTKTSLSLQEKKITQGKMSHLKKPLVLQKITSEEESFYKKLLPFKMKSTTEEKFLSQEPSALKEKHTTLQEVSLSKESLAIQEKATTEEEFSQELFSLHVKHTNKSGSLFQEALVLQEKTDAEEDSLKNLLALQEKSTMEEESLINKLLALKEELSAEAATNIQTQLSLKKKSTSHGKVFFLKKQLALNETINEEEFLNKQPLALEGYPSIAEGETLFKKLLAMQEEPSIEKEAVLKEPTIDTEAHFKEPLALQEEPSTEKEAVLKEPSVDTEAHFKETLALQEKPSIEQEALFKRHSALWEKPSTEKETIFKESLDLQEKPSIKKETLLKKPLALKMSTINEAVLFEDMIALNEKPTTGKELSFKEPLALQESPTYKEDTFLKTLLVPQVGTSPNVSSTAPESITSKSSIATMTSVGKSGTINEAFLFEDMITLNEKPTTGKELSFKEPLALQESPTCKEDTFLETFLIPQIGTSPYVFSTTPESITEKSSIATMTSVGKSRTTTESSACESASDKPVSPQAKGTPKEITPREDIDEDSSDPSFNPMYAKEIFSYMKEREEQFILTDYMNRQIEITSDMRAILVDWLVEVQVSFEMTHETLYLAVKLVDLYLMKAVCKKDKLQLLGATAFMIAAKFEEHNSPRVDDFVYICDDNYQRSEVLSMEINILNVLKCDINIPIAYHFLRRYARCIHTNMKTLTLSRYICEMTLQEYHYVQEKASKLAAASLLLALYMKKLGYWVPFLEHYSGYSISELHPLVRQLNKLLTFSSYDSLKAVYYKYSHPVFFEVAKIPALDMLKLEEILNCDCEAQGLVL
Chain of Cyclin-dependent kinase 1/cyclin B (O95067 whole entry): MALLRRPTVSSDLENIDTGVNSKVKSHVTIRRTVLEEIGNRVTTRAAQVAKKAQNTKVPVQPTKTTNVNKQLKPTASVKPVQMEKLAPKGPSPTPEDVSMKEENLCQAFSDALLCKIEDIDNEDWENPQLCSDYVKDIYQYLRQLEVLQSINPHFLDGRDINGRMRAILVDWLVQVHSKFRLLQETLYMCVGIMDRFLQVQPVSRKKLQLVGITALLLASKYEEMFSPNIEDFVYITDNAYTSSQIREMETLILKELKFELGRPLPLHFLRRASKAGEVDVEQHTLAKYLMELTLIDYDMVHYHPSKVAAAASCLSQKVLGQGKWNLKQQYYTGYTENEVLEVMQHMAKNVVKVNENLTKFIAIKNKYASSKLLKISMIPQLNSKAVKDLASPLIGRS

For orientation: IC50 means the concentration that gives 50% inhibition. A lower IC50 goes with inhibition by little substance. In the case of `COc1ccc2c(c1)NC(=O)Cc1c-2[nH]c2ccc([N+](=O)[O-])cc12`, the IC50 in assay [1] is 0.63 µM; in assay [2] it was 1 µM. Regarding `N#Cc1ccc2[nH]c3c(c2c1)CC(=O)Nc1ccsc1-3`, 0.075 µM corresponded to half-maximal inhibition in assay [2] (IC50). With `Cc1ccc2[nH]c3c(c2c1)CC(=O)Nc1ccsc1-3`, in assay [1], the midpoint of inhibition, the IC50, lay at 40 µM.

Regarding `O=C1Cc2c([nH]c3ccc([N+](=O)[O-])cc23)-c2sccc2N1`, the concentration for half-maximal inhibition (IC50) in assay [1] was 0.1 µM; in assay [2], 0.08 µM.

Regarding `O=C1Cc2c([nH]c3ccc(C(F)(F)F)cc23)-c2cccnc2N1`, the IC50 in assay [1] was 13 µM; in assay [2] it was 6 µM.

Take `COc1ccc2[nH]c3c(c2c1)CC(=O)Nc1ncccc1-3`: the results for the 50% inhibitory concentration (IC50) in assay [1] and in assay [2] were 420 µM and 89.9 µM, respectively. Consider `O=[N+]([O-])c1ccc2[nH]c3c(c2c1)CC(=S)Nc1ccccc1-3`, for which the IC50 in assay [1] was 1.7 µM; in assay [2], 1.3 µM. On to `Cc1ccc2[nH]c3c(c2c1)CC(=O)Nc1ncccc1-3`, for which the IC50 was 430 µM in assay [1] and 200 µM in assay [2]. As to `O=C1Cc2c([nH]c3ccc(Br)cc23)-c2sccc2N1`, half-maximal inhibition in assay [1] (IC50) required 4 µM.

Take `CSC1=Nc2ccccc2-c2c(c3cc([N+](=O)[O-])ccc3n2C)C1`: the figures for the IC50 in assay [1] and in assay [2] were 849 µM and 230 µM, respectively. Turning to `SC1=Nc2ccccc2-c2cc(-c3ccccn3)cc(-c3cccs3)c2C1`, the IC50 in assay [2] was 33 µM. In the case of `O=C1Cc2c([nH]c3ccc(Cl)cc23)-c2cccnc2N1`, the results for the IC50 in assay [1] and in assay [2] were 42 µM and 23 µM, respectively.

With `O=C1Cc2c([nH]c3ncccc23)-c2ccccc2N1`, 3.3 µM corresponded to half-maximal inhibition in assay [1] (IC50). On to `CC(=O)Cc1ccc2c(c1)-c1[nH]c3ccc(C(F)(F)F)cc3c1CC(=O)N2`, for which the IC50 in assay [1] is 0.42 µM.

For the molecule `O=C1Cc2c([nH]c3ccc(Cl)cc23)-c2sccc2N1`, in assay [1], 5 µM corresponded to half-maximal inhibition (IC50).

(Values after ChEMBL document CHEMBL1148295, “Evaluation and comparison of 3D-QSAR CoMSIA models for CDK1, CDK5, and GSK-3 inhibition by paullones” (J Med Chem, 2004).)
